{"source": "patent US12070505B2", "about": "“Targeted peptide-drug conjugates” (priority 2021, dated 2024)", "key": {"MES-SA/MX2 cells [1]": {"system": "MES-SA/MX2 cells", "experiment": "FACS cellular uptake with endocytosis inhibitors, MES-SA/MX2", "assay_type": "cell-based", "conditions": "5 μM, 3 h"}, "MDA-MB-231 cells [2]": {"system": "MDA-MB-231 cells", "experiment": "FACS cellular uptake with endocytosis inhibitors, MDA-MB-231", "assay_type": "cell-based", "conditions": "5 μM, 3 h", "experimental": "Fluorescence-Activated Cell Sorter (FACS) Analysis of Cellular Uptake in the Presence of Endocytosis Inhibitors. A flow cytometry study was conducted in the presence of endocytosis inhibitors such as nystatin, chlorpromazine, chloroquine, and methyl β-cyclodextrin to determine whether the cellular uptake for the peptide-Dox was endocytosis-dependent. MDA-MB-231 (5×10^5 cells/well) were seeded in the medium 24 h prior to the experiment in six well plates, and after 24 h the medium was changed with Opti-MEM. […] After 3 h incubation, the media containing the compounds were removed. Next, the cells were digested with 0.05% trypsin/EDTA (0.53 mM) for 5 min to remove any artificial surface binding, centrifuged at 2500 RPM for 5 min, and then collected as the precipitant. Then the cells were washed two times with PBS, resuspended in flow cytometry buffer, and transferred to the flow cytometry tubes through the 35 μm Strainer Mesh cap. Finally, the cells were analyzed by flow cytometry (FACSCalibur Becton Dickinson) using the propidium iodide channel and CellQuest software. The data presented were based on the mean fluorescence intensity for 10,000 cells collected. All assays were performed in triplicate."}, "MCF-7 cells": {"system": "MCF-7 cells", "experiment": "MTS cytotoxicity assay of [(WR)8WKβA]-Dox, MCF-7", "assay_type": "cell-based", "experimental": "(§1) Cytotoxic activity of the synthesized conjugate and noncovalent mixtures of cyclic [WR]9+Dox was determined in SK-OV-3, MDA-MB-231, MCF-7, MES-SA/MX2, and H9C2 cells. […] An appropriate growth medium was used for each cell line (for SK-OV-3: McCoy's […] with L-glutamine containing fetal bovine serum (FBS) (10%) and penicillin or streptomycin (1%); for MDA-MB-231 and MCF-7 cells: DMEM/F12 (1:1) (1×) with L-Glutamine and 15 mM HEPES containing FBS (10%) and penicillin or streptomycin (1%), and for MES-SA/MX2 and H9C2 cells: Minimum Essential Medium Eagle with Earle's salts and sodium bicarbonate, without L-glutamine containing FBS (10%), and penicillin or streptomycin (1%)). The cells were seeded in a complete growth medium 24 h prior to the experiment. […] The incubation was continued for 3 h."}, "in vitro": {"experiment": "in vitro", "conditions": "human, 25% human serum", "procedure": "Human serum (250 μL) was diluted by adding sterile water (650 μL) and conjugate stock solution (100 μL) to give a sample with 25% human serum and 5 μM conjugate. The sample was kept at 37° C. in an incubator to mimic human body temperature. At regular time intervals, aliquots (100 μL) were taken and diluted with methanol (200 μL). After centrifugation (7000 RPM) of the mixture for 10 min, the supernatant was analyzed by analytical HPLC at 495 nm, and the major HPLC peaks were analyzed by mass spectrometry. The mobile phase used was acetonitrile/water with 0.1% TFA, with a gradient of 20-45% and a flow rate of 1 mL/min in 50 min. The percentage of intact conjugate and the release of the free drug were plotted against incubation time. The AUC obtained after each run was used to confirm the conjugate's degradation, and t1/2 (the time needed to hydrolyze half of the initial conjugate in human serum) was calculated from the graph plotted as AUC versus incubation time."}, "MES-SA/MX2 cells [3]": {"system": "MES-SA/MX2 cells", "experiment": "MTS cytotoxicity assay of [(WR)8WKβA]-Dox, MES-SA/MX2", "conditions": "MES-SA/MX2; for reduction in cell viability: 24 h", "experimental": "as §1"}, "H9C2 cells": {"system": "H9C2 cells", "experiment": "Confocal microscopy uptake in H9C2 (Example 2)", "assay_type": "cell-based, rat", "conditions": "5 μM, 24 h", "experimental": "Confocal Microscopy. MDA-MB-231, SK-OV-3, MES-SA/MX2, and H9C2 cells (7×10^4 cells/well) were seeded with a medium on a coverslip 24 h prior to the experiment in six well plates. After 24 h, the medium was changed with opti-MEM. The cells were treated with Dox and peptide-Dox conjugate (5 μM) in opti-MEM for 24 h. After 24 h incubation, the media were removed, and cells were washed three times with PBS in each well. Then, the cells were fixed with 3.7% formaldehyde for 10 min, followed by washing three times with PBS (pH 7.6) for 5 min. DAPI (40 μL) for staining the nuclei was placed on a microscope slide, and it was covered with the coverslip with the cell-attached side facing down. The slides were left standing horizontally in a dark place with airflow to allow faster drying. The cells were photographed using Nikon Instruments A1 Confocal Laser Microscope Series and NIS-Elements software (AR 4.30.02, 64 bit). The scan mode was selected as Galvano. The magnification and resolution were set at 40× and 1024, respectively."}, "H9C2 myocardium cells": {"system": "H9C2 myocardium cells", "conditions": "24 h", "experimental": "as §1"}, "CCRF-CEM cells": {"system": "CCRF-CEM cells", "conditions": "5 μM", "procedure": "Intracellular Hydrolysis. […] Cells were grown with serum-free RPMI medium in 75 cm^2 culture flasks to approximately 70-80% confluence (1.37×10^7 cells/mL). […] Then the cells were incubated at 37° C. After 4 h, the medium containing the conjugate was aspirated, and cells were washed three times with PBS before adding a fresh serum-free medium. The cells were first partitioned/transferred to culture plates (six wells) contained 1.37×10^7 cells per well in 5 mL of medium, then incubated for the indicated time. After incubation, the cells were collected using centrifugation. After centrifugation, the medium was removed by decantation. The cell pellets were washed with ice-cold PBS to remove any remaining medium. The cell pellets were then completely extracted with an equal volume of methanol, chloroform, and isopropanol mixture (4:3:1 v/v/v) and finally filtered through 0.2 μm filters."}, "MDA-MB-231 cells [4]": {"system": "MDA-MB-231 cells", "experiment": "Differential extraction of Dox in nuclear and cytoplasmic compartments (HPLC)", "assay_type": "cell-based", "conditions": "50 μM; 4 h exposure", "experimental": "Differential Extraction of Dox in Nuclear and Cytoplasmic Compartments. In order to confirm nuclear delivery of peptide-conjugated Dox, in addition to confocal microscopy, a differential nuclear and cytoplasmic extraction was performed. […] The cells were then pelleted at 2000 rpm for 5 min. After removing the supernatant, the cells were resuspended in Dounce buffer containing protease inhibitors. The cell suspension to be used was incubated on ice for 15 min before being spiked with cold 10% NP-40 and vortexed for 10 s. The suspension was centrifuged at 10,000 rpm for 10 min at 4° C. to pellet the nuclei. The supernatant was isolated for cytoplasmic extraction. The nuclear pellet was washed in cold PBS twice and centrifuged to remove the supernatant. The isolated nuclei were then lysed using RIPA buffer containing protease inhibitors. The nuclear and cytoplasmic extractions were analyzed by analytical HPLC to differentially quantify free Dox (or Dox released from the conjugates) and peptide-conjugate Dox using an Agilent Zorbax SB-C18 (4.6×150 mm) column. The column was equilibrated with 0.1% TFA-water (solvent A). The elution was performed at a flow rate of 1 mL/min using a gradient of acetonitrile from 0 to 35% in 50 min, with the absorbance measured at 490 nm."}}, "note": "Like-named read-outs stand apart in the source and are kept apart here. Residues, ends and D or L forms follow the SMILES beside them. Groups on a side chain read outwards from the residue. *: point of attachment. Glutaryl(5-(14-O-Dox)) = COc1cccc2c1C(=O)c1c(O)c3c(c(O)c1C2=O)C[C@@](O)(C(=O)COC(=O)CCCC(=O)*)C[C@@H]3O[C@H]1C[C@H](N)[C@H](O)[C@H](C)O1; βAla = NCCC(=O)O"}
{"smiles": "COc1cccc2c1C(=O)c1c(O)c3c(c(O)c1C2=O)C[C@@](O)(C(=O)COC(=O)CCCC(=O)NCCC(=O)NCCCC[C@@H]1NC(=O)[C@H](Cc2c[nH]c4ccccc24)NC(=O)[C@H](CCCNC(=N)N)NC(=O)[C@H](Cc2c[nH]c4ccccc24)NC(=O)[C@H](CCCNC(=N)N)NC(=O)[C@H](Cc2c[nH]c4ccccc24)NC(=O)[C@H](CCCNC(=N)N)NC(=O)[C@H](Cc2c[nH]c4ccccc24)NC(=O)[C@H](CCCNC(=N)N)NC(=O)[C@H](Cc2c[nH]c4ccccc24)NC(=O)[C@H](CCCNC(=N)N)NC(=O)[C@H](Cc2c[nH]c4ccccc24)NC(=O)[C@H](CCCNC(=N)N)NC(=O)[C@H](Cc2c[nH]c4ccccc24)NC(=O)[C@H](CCCNC(=N)N)NC(=O)[C@H](Cc2c[nH]c4ccccc24)NC(=O)[C@H](CCCNC(=N)N)NC(=O)[C@H](Cc2c[nH]c4ccccc24)NC1=O)C[C@@H]3O[C@H]1C[C@H](N)[C@H](O)[C@H](C)O1", "note": "[[(WR)8WKβA]-Dox] (cyclo(K([βAla-Glutaryl(5-(14-O-Dox))])WRWRWRWRWRWRWRWRW))", "values": [{"measurement": "cellular uptake in presence of nystatin and chloroquine", "setting": "MES-SA/MX2 cells [1]", "value": "not reduced significantly"}, {"measurement": "cellular uptake in presence of nystatin and chloroquine", "setting": "MDA-MB-231 cells [2]", "value": "not reduced significantly"}, {"measurement": "reduction of cell proliferation", "setting": "MCF-7 cells; 1 μM, 24 h", "value": 28, "unit": "%"}, {"measurement": "reduction of cell proliferation", "setting": "MCF-7 cells; 1 μM, 72 h", "value": 70, "unit": "%"}, {"measurement": "reduction of cell proliferation", "setting": "MCF-7 cells; 5 μM, 24 h", "value": 55, "unit": "%"}, {"measurement": "reduction of cell proliferation", "setting": "MCF-7 cells; 5 μM, 72 h", "value": 77, "unit": "%"}, {"measurement": "reduction of cell proliferation", "setting": "MCF-7 cells; 10 μM, 24 h", "value": 56, "unit": "%"}, {"measurement": "reduction of cell proliferation", "setting": "MCF-7 cells; 10 μM, 72 h", "value": 77, "unit": "%"}, {"measurement": "half-life at 5 μM", "setting": "in vitro", "value": "~6", "unit": "h"}, {"measurement": "remaining at 3 h, 5 μM", "setting": "in vitro", "value": 80, "unit": "%"}, {"measurement": "reduction in cell viability", "setting": "MES-SA/MX2 cells [3]; 1 μM", "value": 64, "unit": "%"}, {"measurement": "reduction in cell viability", "setting": "MES-SA/MX2 cells [3]; 5 μM", "value": 50, "unit": "%"}, {"measurement": "Dox-resistant cell survival / viability", "setting": "MES-SA/MX2 cells [3]; 5 μM, 72 h", "value": 8, "unit": "%"}, {"measurement": "reduction in cell viability", "setting": "MES-SA/MX2 cells [3]; 10 μM", "value": 39, "unit": "%"}, {"measurement": "uptake in heart cells (confocal microscopy, words)", "setting": "H9C2 cells", "value": "did not show any significant uptake"}, {"measurement": "cytotoxicity", "setting": "H9C2 myocardium cells; 1 μM and 5 μM", "value": "no significant cytotoxicity"}, {"measurement": "cytotoxicity", "setting": "H9C2 myocardium cells; 10 μM", "value": "comparable to Dox"}, {"measurement": "free Dox released intracellularly", "setting": "CCRF-CEM cells; within 12 h", "value": "More than 36%"}, {"measurement": "free Dox released intracellularly", "setting": "CCRF-CEM cells; within 72 h", "value": "Approximately 100%"}, {"measurement": "total concentration of Dox (conjugated and released) in the nucleus", "setting": "MDA-MB-231 cells [4]", "value": "higher than free Dox"}]}
